In US20090118316A1, “Methods for Augmenting Bone” (PFZER INC., priority 2004, published 2009):
Entries after “also recorded” stand apart in the source; their conditions may differ.

Experiments:
[1] = tested on: murine mesenchymal stem cells; test: Alkaline phosphatase activity in murine MSC; type: cell-based, mouse; conditions: murine MSCs, OS media, 1 μM dexamethasone or increasing doses of PF—Y; units per culture or per μg DNA (FIG. 2)
Procedure: (§1) Quantitative Alkaline Phosphatase Measurement. For quantitative alkaline phosphatase measurements, cells were washed twice with Dulbecco's phosphate buffered saline (DPBS) followed by incubation with substrate buffer (50 mM glycine, 1 mM magnesium chloride, pH 10.5) containing 1.3 mg/ml p-nitrophenol phosphate. The levels of alkaline phosphatase activity were determined by measuring the absorbance at 405 nm and compared to p-nitrophenol standards. The level of alkaline phosphatase activity was corrected for the amount of DNA in each sample.
(§2) Murine mesenchymal stem cells isolated from femurs and tibiae of C57BI/6 mice were cultured in alpha-MEM containing 10% fetal bovine serum (FBS) and plated in six well dishes at a density of […]. The day after plating, the media were removed and replaced with media alone, in media with OS, or in OS media containing either 1 μM of dexamethasone or increasing doses of PF—Y for 21 days. “OS” medium” contains 50 μM ascorbic acid and 10 mM β-glycerophosphate. Media were refreshed every 3 days. The amount of alkaline phosphatase was measured on day 7 and day 21. The amounts of secreted calcium were determined only on day 21. The VonKossa stain was done after staining day 21 samples for alkaline phosphatase.

[2] = tested on: murine MC3T3 cells; test: Alkaline phosphatase activity in MC3T3 cells; type: cell-based, mouse; conditions: OS media with increasing doses of PF—Y, units per plate or per μg DNA (FIG. 6)
Procedure: as §1
MC3T3 cells were cultured in alpha-MEM media containing 10% FBS and plated in six well dishes at a density of 5×10^4 cells/well. The day after plating, the media were removed and OS media with increasing doses of PF—Y were added. Media were refreshed every 3 days. The amount of alkaline phosphatase was measured as in Example 2 and 3.

[3] = target: T1, PYK2 (Mus musculus, UniProt Q9QVP9); test: AIF-stimulated phosphorylation of PYK2 tyrosine 402 in MC3T3 cells (immunoprecipitation, SDS-PAGE); type: cell-based; conditions: Aluminum fluorate (AIF), 3 mM PF—Y (FIG. 7)
T1 construct: endogenous in cells; host or cells: murine MC3T3 cells
Procedure: Murine MC3T3 cells were treated with Aluminum fluorate (AIF) alone or in the presence of 3 mM PF—Y. Cells were lysed and the amount of total PYK2 and phosphorylated PYK2 (P-Y402) were determined by immunoprecipitation with antibodies that recognize total PYK2 or phosphorylated Tyr 402 PYK2 followed by SDS-PAGE.

[4] = tested on: human mesenchymal stem cells; test: Alkaline phosphatase activity in human MSC; type: cell-based; conditions: human MSCs, OS media; units per μg DNA (FIG. 4)
Procedure: as §1
(§3) Human mesenchymal stem cells were cultured in DMEM-high glucose containing 10% FBS and 10 mM l-glutamine and plated in six well dishes at a density of 3×10^4 cells/well. The day after plating, these cultures were treated and analyzed as in Example 2.

[5] = tested on: murine mesenchymal stem cells; test: Calcium deposition in murine MSC; type: cell-based, mouse; conditions: murine MSCs, OS media, day 21, 1 μM dexamethasone or increasing doses of PF—Y; μg per culture or per μg DNA (FIG. 3)
Procedure: (§4) Calcium Assay. Calcium deposited by the cells was measured using a diagnostic kit (Sigma #587A). Briefly, cells were rinsed twice with DPBS and hydrolyzed in 0.5 N HCl rotating overnight at 4°. Cells were then scraped and cellular debris was pelleted. Supernatants were used to measure calcium levels following manufacturer's protocol. The absorbance at 570 nm was determined and compared to calcium standards. Calcium levels were corrected for the DNA content in each well.
as §2

[6] = tested on: human mesenchymal stem cells; test: Calcium deposition in human MSC; type: cell-based; conditions: human MSCs, compared to OS media alone; PF—Y especially the two lower doses (FIG. 5)
Procedure: as §4, §3

[7] = tested on: ovariectomized (OVX) rat model; test: OVX rat model: trabecular bone histomorphometry of proximal tibial metaphysis; type: in vivo; conditions: OVX rats vs vehicle, PF—X 30 mg/kg/d, 28 days; for bone formation rate/BV / bone formation rate/TV / mineral apposition rate / osteoclast number / osteoclast surface / percent mineralizing surface: EE 30 μg/kg/d
[8] = tested on: ovariectomized (OVX) rat model; test: OVX rat model: pQCT analysis of distal femoral metaphysis; type: in vivo; conditions: OVX rats vs vehicle, PF—X 10 or 30 mg/kg/d, 28 days; for cortical bone content / total bone mineral content / total bone mineral density: EE 30 μg/kg/d
[9] = OVX rat model: body weight; type: in vivo; conditions: OVX rats, oral gavage 28 days, vs vehicle-treated OVX; PF—X (di-hydrochloride salt) 10 or 30 mg/kg/d, EE 30 μg/kg/d
[10] = tested on: ovariectomized (OVX) rat model; test: OVX rat model: serum osteocalcin by RIA; type: in vivo; conditions: OVX rats, 2 weeks post-treatment, vs vehicle-treated OVX rats

T1 sequence (Q9QVP9 whole entry): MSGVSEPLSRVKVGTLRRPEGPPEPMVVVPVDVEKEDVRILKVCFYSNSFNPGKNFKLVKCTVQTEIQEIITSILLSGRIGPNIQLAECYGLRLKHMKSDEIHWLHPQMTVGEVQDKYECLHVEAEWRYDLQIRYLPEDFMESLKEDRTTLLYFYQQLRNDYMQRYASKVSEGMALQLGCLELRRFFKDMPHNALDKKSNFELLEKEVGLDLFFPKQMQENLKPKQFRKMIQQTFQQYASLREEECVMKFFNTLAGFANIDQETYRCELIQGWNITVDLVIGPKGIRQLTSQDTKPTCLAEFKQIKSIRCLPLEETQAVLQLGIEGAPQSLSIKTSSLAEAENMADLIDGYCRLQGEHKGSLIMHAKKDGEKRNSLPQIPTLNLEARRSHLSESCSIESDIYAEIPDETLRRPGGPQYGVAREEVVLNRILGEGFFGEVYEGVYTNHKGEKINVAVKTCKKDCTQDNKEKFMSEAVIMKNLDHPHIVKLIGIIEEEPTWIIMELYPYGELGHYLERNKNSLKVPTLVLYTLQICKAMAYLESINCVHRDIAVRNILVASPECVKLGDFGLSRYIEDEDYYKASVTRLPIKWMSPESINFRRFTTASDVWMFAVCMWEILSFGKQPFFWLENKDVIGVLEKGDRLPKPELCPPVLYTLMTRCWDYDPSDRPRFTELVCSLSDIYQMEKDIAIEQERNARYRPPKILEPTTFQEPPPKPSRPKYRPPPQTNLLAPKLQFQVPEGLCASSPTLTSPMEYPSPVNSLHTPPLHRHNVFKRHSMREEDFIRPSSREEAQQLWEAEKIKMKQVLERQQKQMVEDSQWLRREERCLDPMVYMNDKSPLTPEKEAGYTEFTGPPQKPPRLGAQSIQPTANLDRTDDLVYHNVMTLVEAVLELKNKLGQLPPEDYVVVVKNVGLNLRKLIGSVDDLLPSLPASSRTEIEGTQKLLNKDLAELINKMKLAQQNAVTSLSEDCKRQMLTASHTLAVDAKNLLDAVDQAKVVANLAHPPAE

## Cc1cc(C)c(/C=C2\C(=O)Nc3ccc(O)cc32)[nH]1 [PF—Y]
[1]
  alkaline phosphatase activity: elevated
[2]
  alkaline phosphatase activity: elevated
[3]
  AIF-induced phosphorylation of tyrosine 402 of PYK2: inhibited; also recorded: inhibition
[4]
  alkaline phosphatase activity: elevated
[5]
  calcium deposition: increased
[6]
  calcium deposition: increased

## C#C[C@]1(O)CC[C@H]2[C@@H]3CCc4cc(O)ccc4[C@H]3CC[C@@]21C [EE, 17[…]-ethynyl estradiol, reference compound]
[7]
  bone formation rate/BV: decreases
  bone formation rate/TV: decreases
  mineral apposition rate: decreases
  osteoclast number: decreases
  osteoclast surface: decreases
  percent mineralizing surface: decreases
[8]
  cortical bone content: higher
  total bone mineral content: higher
  total bone mineral density: higher
[9]
  body weight: prevented OVX-induced weight gain
[10]
  Serum osteocalcin: significantly decreased

## CN(c1ccccc1CNc1nc(Nc2ccc3c(c2)CC(=O)N3)ncc1C(F)(F)F)S(C)(=O)=O [PF—X]
[7]
  trabecular bone volume: significant increase
  trabecular thickness: significant increase
  bone formation rate/BV: significant increase
  bone formation rate/TV: significant increase
  mineral apposition rate: significant increase
  osteoclast number: significant decrease
  osteoclast surface: significant decrease
  percent mineralizing surface: significant increase
[8]
  total bone area: significant increases
  trabecular bone density: significant increases
  cortical bone content: significant increases
  total bone mineral content: significant increases
  total bone mineral density: significant increases
[9]
  body weight: No significant difference
[10]
  Serum osteocalcin: significantly increased
